From US20230135152A1 (ACURASTEM INCORPORATED, priority 2020, published 2023)

What was measured:
[1] = target: T1, PIKFYVE (Homo sapiens, UniProt Q9Y2I7); assay: PIKFYVE assay (luciferase ADP-Glo kinase assay, Promega); format: biochemical
How it was run: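 ADP generated in the kinase reaction was detected by ADP-Glo luminescence (luciferase).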

[2] = target: T1, PIKFYVE; assay: Cell-based Pikfyve inhibition activity assay (EEA1 staining, mean vesicle size in BJ fibroblast cells); conditions: Table 4, 4 hours treatment, 3 μM Apilimod = 100% inhibition
How it was run: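 BJ fibroblasts treated 4 h at 37° C with eleven 3-fold doses (0.03-3000 nM), then fixed and stained for EEA1. Confocal images (20×, 16 tiles/well) analysed for mean vesicle size. Normalised to 0.5% DMSO (0%) and 3 μM apilimod (100%); dose-response fitted with variable slope.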

T1 sequence (Q9Y2I7 whole entry): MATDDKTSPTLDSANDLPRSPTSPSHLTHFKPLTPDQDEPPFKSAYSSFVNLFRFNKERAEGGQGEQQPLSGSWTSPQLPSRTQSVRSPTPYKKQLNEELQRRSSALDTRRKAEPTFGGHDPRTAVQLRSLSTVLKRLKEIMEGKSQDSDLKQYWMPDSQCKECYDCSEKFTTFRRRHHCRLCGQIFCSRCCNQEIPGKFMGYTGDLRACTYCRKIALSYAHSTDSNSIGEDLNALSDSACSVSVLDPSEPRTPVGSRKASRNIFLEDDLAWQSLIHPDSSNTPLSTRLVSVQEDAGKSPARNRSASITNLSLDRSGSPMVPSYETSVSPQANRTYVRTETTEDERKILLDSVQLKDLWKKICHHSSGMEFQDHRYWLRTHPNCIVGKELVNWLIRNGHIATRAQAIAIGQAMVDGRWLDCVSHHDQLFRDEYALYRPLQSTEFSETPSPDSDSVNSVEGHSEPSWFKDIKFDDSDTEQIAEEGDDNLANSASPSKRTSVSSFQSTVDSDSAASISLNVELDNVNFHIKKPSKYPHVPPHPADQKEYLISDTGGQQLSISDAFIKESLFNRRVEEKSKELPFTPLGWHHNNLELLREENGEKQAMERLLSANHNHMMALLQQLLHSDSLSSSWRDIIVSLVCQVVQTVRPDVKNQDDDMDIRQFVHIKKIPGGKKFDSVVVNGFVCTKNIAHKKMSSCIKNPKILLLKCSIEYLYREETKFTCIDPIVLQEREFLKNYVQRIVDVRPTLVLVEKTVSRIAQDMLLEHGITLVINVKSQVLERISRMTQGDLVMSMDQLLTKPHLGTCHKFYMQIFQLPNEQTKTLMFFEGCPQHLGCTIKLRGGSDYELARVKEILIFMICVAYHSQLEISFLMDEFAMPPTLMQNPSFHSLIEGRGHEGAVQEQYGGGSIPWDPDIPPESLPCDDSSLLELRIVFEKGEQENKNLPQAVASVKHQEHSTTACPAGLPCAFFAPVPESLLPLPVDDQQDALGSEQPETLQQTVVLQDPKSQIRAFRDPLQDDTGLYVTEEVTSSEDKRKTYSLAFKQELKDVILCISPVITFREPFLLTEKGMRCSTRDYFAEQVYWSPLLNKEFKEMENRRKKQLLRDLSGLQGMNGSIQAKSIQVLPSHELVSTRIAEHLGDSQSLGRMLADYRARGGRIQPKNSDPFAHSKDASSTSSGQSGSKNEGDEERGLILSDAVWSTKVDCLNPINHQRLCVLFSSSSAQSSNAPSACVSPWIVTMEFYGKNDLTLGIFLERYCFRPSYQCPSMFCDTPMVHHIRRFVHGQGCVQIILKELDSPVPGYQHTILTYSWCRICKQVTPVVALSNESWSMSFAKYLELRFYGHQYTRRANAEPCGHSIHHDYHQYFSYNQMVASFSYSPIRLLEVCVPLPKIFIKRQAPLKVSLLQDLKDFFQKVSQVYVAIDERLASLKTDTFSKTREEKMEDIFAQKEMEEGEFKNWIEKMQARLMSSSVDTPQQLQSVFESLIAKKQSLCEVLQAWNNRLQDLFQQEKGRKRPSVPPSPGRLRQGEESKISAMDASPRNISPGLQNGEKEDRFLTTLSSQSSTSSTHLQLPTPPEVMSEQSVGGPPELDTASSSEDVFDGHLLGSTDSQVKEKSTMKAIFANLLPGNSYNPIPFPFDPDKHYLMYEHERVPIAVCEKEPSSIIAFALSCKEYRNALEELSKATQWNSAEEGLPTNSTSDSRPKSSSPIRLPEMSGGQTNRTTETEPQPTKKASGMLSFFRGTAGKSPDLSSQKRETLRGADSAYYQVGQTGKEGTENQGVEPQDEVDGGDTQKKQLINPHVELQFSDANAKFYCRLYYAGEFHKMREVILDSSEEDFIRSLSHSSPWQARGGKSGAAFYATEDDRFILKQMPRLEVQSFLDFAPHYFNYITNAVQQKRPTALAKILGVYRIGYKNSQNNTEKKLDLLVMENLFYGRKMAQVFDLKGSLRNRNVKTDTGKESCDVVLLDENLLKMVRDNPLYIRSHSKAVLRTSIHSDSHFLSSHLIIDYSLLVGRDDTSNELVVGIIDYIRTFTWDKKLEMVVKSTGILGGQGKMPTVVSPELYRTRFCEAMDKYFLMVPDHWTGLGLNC

IC50 ([1]; Table 2) [nM] | EC50 [2] [nM] | IC50 ([1]; Table 3) [nM] | Compound
< 5 | 20 to 100 | – | Cc1cccc(-c2ccn(-c3cc(N4CCOCC4)nc(OCCc4ccnn4C)n3)n2)c1 [Compound 55, 4-(2-(2-(1-methyl-1H-pyrazol-5-yl)ethoxy)-6-(3-(m-tolyl)-1H-pyrazol-1-yl)pyrimidin-4-yl)morpholine]
– | < 20 | < 3 | Cc1cc(-c2c[nH]c3ccccc23)nn1-c1cc(N2CCOCC2)nc(C2COCCO2)n1 (single isomer, unassigned) [Compound 345]
– | 20 to 100 | < 3 | Cc1cccc(-c2ccn(-c3cc(N4CCOCC4)nc(COCc4cn[nH]c4)n3)n2)c1 [Compound 300, 4-(2-(((1H-pyrazol-4-yl)methoxy)methyl)-6-(3-(m-tolyl)-1H-pyrazol-1-yl)pyrimidin-4-yl)morpholine]
– | 100 to 500 | 3 to 10 | Cc1cccc(-c2ccn(-c3cc(N4CCOCC4)nc([C@H]4C[C@@H](O)CO4)n3)n2)c1 [Compound 331, (3R,5R)-5-(4-morpholino-6-(3-(m-tolyl)-1H-pyrazol-1-yl)pyrimidin-2-yl)tetrahydrofuran-3-ol]
< 5 | 500 to 5000 | – | Cn1cc(CCOc2nc(N3CCOCC3)cc(-n3ccc(-c4cccnc4)n3)n2)cn1 [Compound 71, 4-(2-(2-(1-methyl-1H-pyrazol-4-yl)ethoxy)-6-(3-(pyridin-3-yl)-1H-pyrazol-1-yl)pyrimidin-4-yl)morpholine]
– | 100 to 500 | 3 to 10 | Cc1cccc(-c2ccn(-c3cc(N4CCOCC4)nc(OCC4COC4)n3)n2)c1 [Compound 122, 4-(2-(oxetan-3-ylmethoxy)-6-(3-(m-tolyl)-1H-pyrazol-1-yl)pyrimidin-4-yl)morpholine]
– | 100 to 500 | 3 to 10 | CC#CCOc1nc(N2CCOCC2)cc(-n2ccc(-c3cccc(C)c3)n2)n1 [Compound 103, 4-(2-(but-2-yn-1-yloxy)-6-(3-(m-tolyl)-1H-pyrazol-1-yl)pyrimidin-4-yl)morpholine]
– | < 20 | < 3 | C[C@@H](O)c1cccc(-c2ccn(-c3cc(N4CCOCC4)nc(OCCc4cnn(C)c4)n3)n2)c1 (single isomer, unassigned) [Compound 315]
– | 100 to 500 | < 3 | Cn1cc(CCOc2nc(N3CCOCC3)cc(-n3nc(O)cc3-c3ccccc3)n2)cn1 [Compound 211, 1-(2-(2-(1-methyl-1H-pyrazol-4-yl)ethoxy)-6-morpholinopyrimidin-4-yl)-5-phenyl-1H-pyrazol-3-ol]
– | < 20 | < 3 | COC(CO)c1nc(N2CCOCC2)cc(-n2nc(-c3c[nH]c4ccccc34)cc2C)n1 (single isomer, unassigned) [Compound 260, 2-(4-(3-(1H-indol-3-yl)-5-methyl-1H-pyrazol-1-yl)-6-morpholinopyrimidin-2-yl)-2-methoxyethan-1-ol]
– | 20 to 100 | 3 to 10 | Cc1cccc(-c2ccn(-c3cc(N4CCOCC4)nc(/C=C/c4cnn(C)c4)n3)n2)c1 [Compound 304, (E)-4-(2-(2-(1-methyl-1H-pyrazol-4-yl)vinyl)-6-(3-(m-tolyl)-1H-pyrazol-1-yl)pyrimidin-4-yl)morpholine]
< 5 | 20 to 100 | – | Cc1cccc(-c2ccn(-c3cc(N4CCOCC4)nc(C(O)CC#N)n3)n2)c1 (stereo not shown) [Compound 76, 3-hydroxy-3-(4-morpholino-6-(3-(m-tolyl)-1H-pyrazol-1-yl)pyrimidin-2-yl)propanenitrile]
< 5 | 20 to 100 | – | Cc1cccc(-c2ccn(-c3cc(N4CCOCC4)nc(OCCc4cnn(CCN(C)C)c4)n3)n2)c1 [Compound 74, N,N-dimethyl-2-(4-(2-((4-morpholino-6-(3-(m-tolyl)-1H-pyrazol-1-yl)pyrimidin-2-yl)oxy)ethyl)-1H-pyrazol-1-yl)ethan-1-amine]
– | 100 to 500 | 3 to 10 | CO[C@@H](CO)c1nc(N2CCOCC2)cc(-n2ccc(-c3csc4ccccc34)n2)n1 (single isomer, unassigned) [Compound 259]
– | 100 to 500 | < 3 | CN(C)Cc1cccc(-c2ccn(-c3cc(N4CCOCC4)nc(OCCc4cnn(C)c4)n3)n2)c1 [Compound 193, N,N-dimethyl-1-(3-(1-(2-(2-(1-methyl-1H-pyrazol-4-yl)ethoxy)-6-morpholinopyrimidin-4-yl)-1H-pyrazol-3-yl)phenyl)methanamine]
– | > 5000 | 100 to 5000 | CO[C@@H](CO)c1nc(N2CCO[C@@H](C)C2)cc(-n2ccc(-c3cccc(C)c3)n2)n1 (single isomer, unassigned) [Compound 306]
– | > 5000 | 100 to 5000 | Cn1cc(CCOc2nc(N3CCOCC3)cc(-n3ccc(-c4cn(C)c5ccccc45)n3)n2)cn1 [Compound 232, 4-(6-(3-(1-methyl-1H-indol-3-yl)-1H-pyrazol-1-yl)-2-(2-(1-methyl-1H-pyrazol-4-yl)ethoxy)pyrimidin-4-yl)morpholine]
– | 500 to 5000 | 3 to 10 | CO[C@@H](CO)c1nc(N2CCOCC2)cc(-n2nc(-c3csc4ccccc34)cc2C)n1 [Compound 279, (R)-2-(4-(3-(benzo[b]thiophen-3-yl)-5-methyl-1H-pyrazol-1-yl)-6-morpholinopyrimidin-2-yl)-2-methoxyethan-1-ol]
– | < 20 | < 3 | CO[C@@H](C)c1cccc(-c2ccn(-c3cc(N4CCOCC4)nc(OCCc4cnn(C)c4)n3)n2)c1 (single isomer, unassigned) [Compound 341]
< 5 | 100 to 500 | – | COC(CC#N)c1nc(N2CCOCC2)cc(-n2ccc(-c3cccc(C)c3)n2)n1 (stereo not shown) [Compound 72, 3-methoxy-3-(4-morpholino-6-(3-(m-tolyl)-1H-pyrazol-1-yl)pyrimidin-2-yl)propanenitrile]
– | 500 to 5000 | 10 to 100 | Cc1cccc(-c2ccn(-c3cc(N4CCOCC4)nc(OCCn4cnc(CN(C)C)c4)n3)n2)c1 [Compound 117, N,N-dimethyl-1-(1-(2-((4-morpholino-6-(3-(m-tolyl)-1H-pyrazol-1-yl)pyrimidin-2-yl)oxy)ethyl)-1H-imidazol-4-yl)methanamine]
– | > 5000 | 3 to 10 | Cc1cccc(-c2ccn(-c3cc(N4CCOCC4)nc([C@@H]4CCOC4)n3)n2)c1 (single isomer, unassigned) [Compound 330]
– | 20 to 100 | < 3 | Cn1cc(CCOc2nc(N3CCOCC3)cc(-n3ccc(-c4ccccc4)n3)n2)cn1 [Compound 189, 4-(2-(2-(1-methyl-1H-pyrazol-4-yl)ethoxy)-6-(3-phenyl-1H-pyrazol-1-yl)pyrimidin-4-yl)morpholine]
< 5 | < 20 | – | CC(=O)NCCOc1nc(N2CCOCC2)cc(-n2ccc(-c3cccc(C)c3)n2)n1 [Compound 90, N-(2-((4-morpholino-6-(3-(m-tolyl)-1H-pyrazol-1-yl)pyrimidin-2-yl)oxy)ethyl) acetamide]
– | 500 to 5000 | 10 to 100 | Cc1cccc(-c2ccn(-c3cc(N4CCOCC4)c4[nH]cc(C)c4n3)n2)c1 [Compound 335, 4-(3-methyl-5-(3-(m-tolyl)-1H-pyrazol-1-yl)-1H-pyrrolo[3,2-b]pyridin-7-yl)morpholine]
– | < 20 | < 3 | COCc1cccc(-c2ccn(-c3cc(N4CCOCC4)nc(OCCc4cnn(C)c4)n3)n2)c1 [Compound 200, 4-(6-(3-(3-(methoxymethyl)phenyl)-1H-pyrazol-1-yl)-2-(2-(1-methyl-1H-pyrazol-4-yl)ethoxy)pyrimidin-4-yl)morpholine]
